Where a SMILES comes first, the peptide text is derived from it. Bridges are numbered along the chain shown (N, C = ends).
Assays:
[1] = tested on: Curvularia lunata (CICC 40301); assay: Anti-fungal microbroth dilution assay; type: cell-based; details: 1 × 10^5 cells/mL spores in half-strength potato dextrose broth, 25°C, 24 h, crystal violet, absorbance 570 nm, read-out: IC50 against C. lunata
Protocol: (§1) Four phyto-pathogenic fungal strains from the China Center of Industrial Culture Collection (Beijing, China) were used to examine the anti-fungal activity of avenatide aV1: Alternaria alternata (CICC 2465), Curvularia lunata (CICC 40301), Fusarium oxysporum (CICC 2532), and Rhizoctonia solani (CICC 40259). Fungal strains were grown on potato dextrose agar plates at 25°C.
(§2) The half maximal inhibitory concentration levels (IC50) of avenatide aV1 were determined using a microbroth dilution assay ([Loo et al., 2021b]). Fungal spores were harvested from a 4-day old, actively growing fungal plate and suspended in half-strength potato dextrose broth. In the 96-well microplate, 1 × 10^5 cells/mL of spore suspension was mixed with peptides at varying concentrations and incubated at 25°C for 24 h. The cells were then fixed with 100% methanol for 15 min. Staining was done for 45 min with crystal violet dye. MilliQ water was used to remove excess dye. Elution was performed using 1:1 (v/v) ethanol/0.1 N HCl. Absorbance was measured at 570 nm.

[2] = tested on: Fusarium oxysporum (CICC 2532); assay: Anti-fungal microbroth dilution assay; type: cell-based; details: 1 × 10^5 cells/mL spores in half-strength potato dextrose broth, 25°C, 24 h, crystal violet, absorbance 570 nm, read-out: IC50 against F. oxysporum
Protocol: as §1, §2

[3] = tested on: trypsin; assay: Peptide stability assay, trypsin (endopeptidase); type: in vitro ADME; details: recommended buffer, RP-HPLC, n = 3
Protocol: (§3) Purified avenatides aV1 and S-alkylated aV1 were incubated under the stated conditions and recommended buffer solution. At each time interval, aliquots of samples were taken and RP-UPLC was performed in triplicate.

[4] = tested on: carboxypeptidase A; assay: Exoproteolytic enzyme stability assay, carboxypeptidase A; type: in vitro ADME; details: carboxypeptidase A (isolated exopeptidase); 200 μM peptide, 100 nM carboxypeptidase A, 50 mM Tris-HCl, 100 mM sodium chloride, 37°C, 4 h (time-points 0 and 6 h); quenched with 1 M HCl; RP-UPLC; n = 3; read-out: Peptide retained after carboxypeptidase A treatment
Protocol: as §3
Purified avenatide aV1 (200 μM) were added to 50 mM Tris-HCl, 100 mM sodium chloride with 100 nM carboxypeptidase A or 20 mM tricine and 0.05% bovine serum albumin (pH 8.0) with 20 U/mL aminopeptidase I. The mixture was incubated in a 37°C water bath for 4 h. At each time-point ([…]), 20 μL of the treated sample was aliquoted and quenched with 5 μL 1 M hydrochloric acid. RP-UPLC was performed to determine the amounts of avenatide aV1 present before and after treatment.

CC(C)C[C@@H]1NC(=O)CNC(=O)[C@@H]2CSSC[C@@H]3NC(=O)[C@@H]4CCCN4C(=O)[C@H](CO)NC(=O)[C@H](CO)NC(=O)[C@H](CO)NC(=O)[C@H](CO)NC(=O)[C@@H](NC(=O)[C@H](C)N)CSSC[C@H](NC(=O)[C@H](CSSC[C@@H](C(=O)NCC(=O)N[C@@H](CO)C(=O)NCC(=O)N[C@H]4CSSC[C@@H](C(=O)N[C@H](C(=O)NCC(=O)N[C@@H](C)C(=O)O)[C@@H](C)O)NC(=O)[C@@H]5CCCN5C(=O)CNC(=O)[C@H](CO)NC(=O)[C@H](CCC(N)=O)NC4=O)NC(=O)[C@H](Cc4ccc(O)cc4)NC(=O)[C@H](CC(=O)O)NC(=O)CNC(=O)CNC1=O)NC(=O)[C@H](CCC(N)=O)NC(=O)[C@H](CC(N)=O)NC(=O)CNC(=O)[C@@H]1CCCN1C3=O)C(=O)N[C@@H](CO)C(=O)N[C@@H](CCCCN)C(=O)N[C@@H](Cc1c[nH]c3ccccc13)C(=O)NCC(=O)N[C@@H](Cc1ccc(O)cc1)C(=O)N2 [avenatide aV1] (H-ACSSSSPCPGNQCCSKWGYCGLGGDYCGSGCQSGPCTGA-OH; disulfide 2-14, 8-20, 13-27, 31-36)
IC50 [1]: 74 µM
IC50 [2]: 53 µM
Peptide retained after trypsin treatment [3]: > 80%
remaining at 4 h, 200 μM [4]: > 80%
